Experimental data reported in patent publication US9937227B2, “Humanin, analogs and cancer treatment methods and uses thereof” (LOS ANGELES BIOMEDICAL RESEARCH INSTITUTE AT HARBOR-UCLA …, priority 2014, dated 2018).
Values joined by “and” are separate entries in the source; they are usually repeats but may differ in a detail not shown here. Equal values may be shown once.

Assays:
[1] = tested on: male germ cells; type: in vivo, mouse; conditions: B16 tumor-bearing mice; CP 200 mg/Kg single IP, 2 weeks
Experimental: A total of 25 young adult mice (10-12 weeks) were randomly divided into 5 groups (n=5 per group). Five mice were used as control. Twenty mice were inoculated intravenously with B16 murine melanoma cells (2×10^5 cells/mouse). Among these 20 tumor-inoculated mice, 5 mice received no further treatment. After one week, the remaining 15 mice were divided into 3 groups and injected with: 1) HNG daily IP (5 mg/Kg body weight) for 2 weeks; 2) CP (200 mg/Kg body weight IP single injection); 3) combined CP with HNG treatment (same doses as above). All mice were sacrificed 3 weeks after tumor inoculation, and 2 weeks after HNG and/or CP treatment. The animals were sacrificed with 5% pentobarbital (200 mg/kg body weight) IP injection after which blood was collected from the right atrium of the heart. One of the testes from each mouse was immersed fixed in Bouin's solution, and the mice were perfused with saline and subsequently perfuse-fixed with 5% glutaraldehyde in 0.05 M cacodylate buffer (pH 7.4). The lungs were dissected out and post fixed in 5% glutaraldehyde solution for 24 hours and stored in cacodylate buffer at 4° C. for the subsequent tumor count (Lue, et al., 2010; Lue, et al., 2009).

[2] = tested on: male germ cells; type: in vivo; conditions: middle stages (VII-VIII); same doses; 24 hours; monohydrate
Experimental: (§1) For the HN analog experiments, male mice were divided into seven groups (n=4-5 per group) and received one of the following treatments and sacrificed after 24 hours: 1) vehicle (control); 2) a single intra-peritoneal (IP) injection of HN peptide [HN, 40 mg/Kg body weight (BW)]; 3) a single IP injection of CP (CP, 200 mg/Kg BW); 4) IP injection of CP and HN (CP+HN); 5) a single IP injection of each HN analog (HNG 5 mg/Kg BW, HNG-F6A 5 mg/Kg BW, HN-S7A 40 mg/Kg BW, HN-C8P 40 mg/Kg BW, or HN-L12A 40 mg/Kg BW); 6) IP injection of CP and each HN analog (CP+HNG, HNG-F6A, HN-S7A, HN-C8P, or HN-L12A); and 7) IP injection of CP+HN+HN analog (HN-S7A, HN-C8P, or HN-L12A; to assess whether the analogs has enhancing or inhibitory effect on HN).
(§2) To facilitate testicular fixation by using a whole-body perfusion technique, all animals were injected with heparin (130 IU/100 g BW, IP) 15 min before a lethal injection of sodium pentobarbital (200 mg/kg BW, IP) (Lue Y H, et al., 1999). One testis was removed and weighed after perfusion with saline. Portions of testicular parenchyma were snap frozen in liquid nitrogen, and stored at −80 C for Western blotting. The other testis was fixed by vascular perfusion with Bouin's solution, and processed with routine paraffin embedding for in situ detection of apoptosis.
Detection of apoptotic cells was performed in Bouin's'-fixed, paraffin-embedded testicular sections by the terminal deoxynucleotidyl transferase (TdT)-mediated deoxy-UTP nick end labeling (TUNEL) technique (Sinha Hikim A P, et al., 1997) using an ApopTag-peroxidase kit (Chemicon International, Inc., Temecula, Calif.). Enumeration of the Sertoli cell nuclei with distinct nucleoli and apoptotic germ cell population was quantified at stages I-IV (early stages), stages VII-VIII (middle stages) and stages XI-XII (late stages) of the seminiferous epithelial cycle using an Olympus BH-2 microscope (New Hyde Park, N.Y.). Stages were identified according to the criteria proposed by Russell et al for paraffin sections (Russell L, 1977). The rate of germ cell apoptosis (apoptotic index, AI) was expressed as the number of apoptotic germ cells per Sertoli cells (Sinha Hikim A P, et al., 1997).

[3] = tested on: Ser727-phosphorylated STAT3; experiment: STAT3 phosphorylation in testis by western blot; type: in vivo, mouse; conditions: testis homogenates; single agent
Experimental: as §1, §2
Western blotting was performed as described previously (Jia Y, et al., 2009). […]

[4] = tested on: 4T1 mammary cancer; experiment: 4T1 mouse mammary cancer model, tumor size and weight; conditions: in vivo
Experimental: A mouse mammary cancer model was used which utilizes 4T1 cells transfected with the luciferase gene. Growth and size of 4T1 mammary tumors were detected by bioluminescence imaging (IVIS Luminia II, Perkin Elmer, Waltham, Mass.). Mice (n=5 to 7 per group) were inoculated with 1×10^6 4T1 cells into the right third mammary gland, and 7 days later they were left untreated or treated with HNG (5 mg/kg/day IP), CP (100 mg/Kg single IP) or HNG+CP for 14 days. Bioluminescence imaging was conducted at days 7 and 12. Animals were sacrificed and tumors were removed on day 14 after the start of treatment. Mammary tumors were smaller in CP and CP+HNG groups compared to the untreated and HNG-treated animals (Data images not shown).

[5] = tested on: ovaries; type: in vivo; conditions: HNG 5 mg/kg/day IP or CP 100 mg/Kg single IP, day 14
Experimental: A mouse mammary cancer model was used which utilizes 4T1 cells transfected with the luciferase gene. Growth and size of 4T1 mammary tumors were detected by bioluminescence imaging (IVIS Luminia II, Perkin Elmer, Waltham, Mass.). Mice (n=5 to 7 per group) were inoculated with 1×10^6 4T1 cells into the right third mammary gland, and 7 days later they were left untreated or treated with HNG (5 mg/kg/day IP), CP (100 mg/Kg single IP) or HNG+CP for 14 days. Animals were sacrificed and both ovaries were removed from each mouse on day 14 after the start of treatment. Serial 5-micrometer sections were made. Every 5th section was examined and the number of primordial, primary, and secondary follicles counted (Kim S Y, et al., 2013; Bristol-Gould S K, et al., 2006; Roti Roti E C, et al., 2012). In addition, TUNEL staining for apoptotic cells and oocytes was quantified (Perez G I, et al., 1997; Ben-Aharon I, et al., 2010).

O=P1(N(CCCl)CCCl)NCCCO1 (stereo not drawn) [CP, cyclophosphamide monohydrate]
germ cell apoptosis compared to control and HNG treated mice [1]: further significantly increased
testis weight in comparison with control, non-treated tumor bearing and HNG treated mice [1]: significantly decreased
apoptotic index (AI, apoptotic germ cells per Sertoli cell) [2]: 0.25±0.03 and 0.33±0.03
STAT3 phosphorylation compared with control [3]: suppressed
mammary tumor size and weight [4]: smaller
ovarian follicles in representative sections [5]: less secondary, but more atretic follicles
